For assay [1], the system named is Streptococcus sp. 'group A'. Description: growth inhibition of control SK(-) GAS strain, dose response, counter-screen for streptokinase expression inhibitor project, luminescence, kanamycin, BacTiterGlo, confirmation (AID 1900). In kind it is functional, organism-based.
The next assay deals with T1, Streptokinase A (Streptococcus pyogenes serotype M1, UniProt P10520).
T1 sequence (P10520 whole entry): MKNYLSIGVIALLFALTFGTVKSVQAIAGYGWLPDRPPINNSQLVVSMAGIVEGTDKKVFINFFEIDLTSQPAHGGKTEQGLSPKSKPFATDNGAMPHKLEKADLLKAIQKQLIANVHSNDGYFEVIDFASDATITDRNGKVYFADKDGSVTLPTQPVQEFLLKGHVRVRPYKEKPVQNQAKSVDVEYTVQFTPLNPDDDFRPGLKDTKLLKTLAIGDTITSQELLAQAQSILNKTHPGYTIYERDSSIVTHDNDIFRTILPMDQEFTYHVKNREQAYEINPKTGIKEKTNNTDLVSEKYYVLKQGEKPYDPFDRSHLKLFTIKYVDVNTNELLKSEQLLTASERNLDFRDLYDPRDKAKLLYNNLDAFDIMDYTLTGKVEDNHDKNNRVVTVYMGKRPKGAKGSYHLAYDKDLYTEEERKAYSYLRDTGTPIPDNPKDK
Description: S. pyogenes streptokinase expression inhibitors, potency, dose response, plasminogen activation absorbance, OD405 (AID 1914).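 Note: secreted streptokinase activity via plasminogen activation per viability signal from cell pellet.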 Format: functional, Streptococcus pyogenes M1 GAS.

For the next assay, the system named is Streptococcus. Nature of the assay: Group A Streptococcus viability loss, dose response, counter-screen for streptokinase expression inhibitor project, luminescence, BacTiterGlo (AID 1915).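 Note: potency for reduction of bacterial viability or growth.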 In kind it is functional, organism-based. For orientation: Counterscreens check selectivity or assay interference.
Assay [2] in a line: Luminescence Cell-Based Dose Retest to Confirm Inhibitors of Cancer Stem Cells. [Related pubchem assays (depositor defined):AID2717, AID2721]. In kind it is functional. The note with it: Homo sapiens.
A further assay has as its target T2, Bcl-2-related protein A1 (Mus musculus, UniProt Q07440).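 Note: confirmatory dose–response counterscreen on Bfl-1, used to check hits from a UBC13 polyubiquitin inhibitor campaign.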
T2 sequence (Q07440 whole entry): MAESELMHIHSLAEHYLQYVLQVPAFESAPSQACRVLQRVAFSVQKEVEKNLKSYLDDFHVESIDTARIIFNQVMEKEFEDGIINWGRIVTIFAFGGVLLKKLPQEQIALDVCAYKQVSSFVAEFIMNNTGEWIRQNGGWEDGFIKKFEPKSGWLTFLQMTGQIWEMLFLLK
Format: functional.

For assay [3], the target named is T3, Ubiquitin-conjugating enzyme E2 N (Homo sapiens, UniProt P61088).
T3 sequence (P61088 whole entry): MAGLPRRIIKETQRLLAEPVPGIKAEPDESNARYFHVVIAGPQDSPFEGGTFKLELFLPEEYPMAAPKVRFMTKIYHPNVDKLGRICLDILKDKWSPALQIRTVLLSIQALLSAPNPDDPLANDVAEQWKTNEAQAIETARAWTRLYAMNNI
Format: functional.

In assay [4] the target is T3, Ubiquitin-conjugating enzyme E2 N. Format: functional. The source holds these as a separate data set.
For the next assay, the target named is Cysteine protease ATG4B (Homo sapiens, UniProt Q9Y4P1). Format: functional.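 Note: Fluorescence-based dose-response confirmation assay measuring inhibition of ATG4B activity.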
Cysteine protease ATG4B, sequence (Q9Y4P1 whole entry): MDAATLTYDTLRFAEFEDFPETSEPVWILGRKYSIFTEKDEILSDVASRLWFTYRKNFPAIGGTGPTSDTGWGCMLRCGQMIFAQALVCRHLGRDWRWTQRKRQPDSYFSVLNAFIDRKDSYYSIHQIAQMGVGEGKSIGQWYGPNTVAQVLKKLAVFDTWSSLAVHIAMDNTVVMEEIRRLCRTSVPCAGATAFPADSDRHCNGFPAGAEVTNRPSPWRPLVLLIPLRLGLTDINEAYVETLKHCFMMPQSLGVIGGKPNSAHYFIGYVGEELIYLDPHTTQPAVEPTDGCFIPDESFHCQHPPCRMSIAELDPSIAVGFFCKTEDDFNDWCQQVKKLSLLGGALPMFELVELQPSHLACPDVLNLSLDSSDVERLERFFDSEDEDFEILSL
Assay [5] deals with T4, Replicative DNA helicase DnaB (Mycobacterium tuberculosis, UniProt P9WMR3).
T4 sequence (P9WMR3 whole entry): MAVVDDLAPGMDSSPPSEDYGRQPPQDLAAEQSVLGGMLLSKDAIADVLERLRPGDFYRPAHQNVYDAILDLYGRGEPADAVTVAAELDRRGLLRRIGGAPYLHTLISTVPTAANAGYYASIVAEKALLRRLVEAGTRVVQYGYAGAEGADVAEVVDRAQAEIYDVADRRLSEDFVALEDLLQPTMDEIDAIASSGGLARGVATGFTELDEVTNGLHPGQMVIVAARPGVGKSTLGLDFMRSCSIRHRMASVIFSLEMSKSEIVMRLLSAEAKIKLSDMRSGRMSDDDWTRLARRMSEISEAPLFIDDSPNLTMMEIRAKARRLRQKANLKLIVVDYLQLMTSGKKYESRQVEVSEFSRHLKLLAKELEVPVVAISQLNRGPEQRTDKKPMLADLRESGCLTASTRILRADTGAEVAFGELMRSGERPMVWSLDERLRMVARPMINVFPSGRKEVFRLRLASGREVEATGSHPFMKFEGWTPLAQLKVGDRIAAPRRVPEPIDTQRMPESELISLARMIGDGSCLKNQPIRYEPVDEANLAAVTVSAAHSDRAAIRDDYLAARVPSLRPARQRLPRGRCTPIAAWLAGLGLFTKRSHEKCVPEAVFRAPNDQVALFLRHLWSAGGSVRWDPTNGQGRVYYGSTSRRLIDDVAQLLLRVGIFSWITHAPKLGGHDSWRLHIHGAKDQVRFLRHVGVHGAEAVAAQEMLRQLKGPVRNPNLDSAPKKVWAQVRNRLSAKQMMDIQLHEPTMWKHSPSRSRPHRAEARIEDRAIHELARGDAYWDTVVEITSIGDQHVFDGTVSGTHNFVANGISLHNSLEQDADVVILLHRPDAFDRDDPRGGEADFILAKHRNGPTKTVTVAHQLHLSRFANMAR
Nature of the assay: DnaB intein splicing inhibitors, dose response, biochemical, cell-free fluorescence (AID 449749). In kind it is functional.

The target of a further assay is Phospholipase A2 (Homo sapiens, UniProt P04054). In kind it is functional.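 Note: confirmatory dose-response counterscreen on phospholipase A2, testing hits that came from an ultra-high-throughput screen for ATG4B inhibitors.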
Phospholipase A2, sequence (P04054 whole entry): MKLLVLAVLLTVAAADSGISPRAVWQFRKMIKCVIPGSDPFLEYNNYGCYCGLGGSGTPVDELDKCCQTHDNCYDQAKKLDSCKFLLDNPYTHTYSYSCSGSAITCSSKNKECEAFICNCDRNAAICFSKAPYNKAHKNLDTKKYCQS
In another assay the target is T5, Protein RecA (Mycobacterium tuberculosis, UniProt P9WHJ3).
T5 sequence (P9WHJ3 whole entry): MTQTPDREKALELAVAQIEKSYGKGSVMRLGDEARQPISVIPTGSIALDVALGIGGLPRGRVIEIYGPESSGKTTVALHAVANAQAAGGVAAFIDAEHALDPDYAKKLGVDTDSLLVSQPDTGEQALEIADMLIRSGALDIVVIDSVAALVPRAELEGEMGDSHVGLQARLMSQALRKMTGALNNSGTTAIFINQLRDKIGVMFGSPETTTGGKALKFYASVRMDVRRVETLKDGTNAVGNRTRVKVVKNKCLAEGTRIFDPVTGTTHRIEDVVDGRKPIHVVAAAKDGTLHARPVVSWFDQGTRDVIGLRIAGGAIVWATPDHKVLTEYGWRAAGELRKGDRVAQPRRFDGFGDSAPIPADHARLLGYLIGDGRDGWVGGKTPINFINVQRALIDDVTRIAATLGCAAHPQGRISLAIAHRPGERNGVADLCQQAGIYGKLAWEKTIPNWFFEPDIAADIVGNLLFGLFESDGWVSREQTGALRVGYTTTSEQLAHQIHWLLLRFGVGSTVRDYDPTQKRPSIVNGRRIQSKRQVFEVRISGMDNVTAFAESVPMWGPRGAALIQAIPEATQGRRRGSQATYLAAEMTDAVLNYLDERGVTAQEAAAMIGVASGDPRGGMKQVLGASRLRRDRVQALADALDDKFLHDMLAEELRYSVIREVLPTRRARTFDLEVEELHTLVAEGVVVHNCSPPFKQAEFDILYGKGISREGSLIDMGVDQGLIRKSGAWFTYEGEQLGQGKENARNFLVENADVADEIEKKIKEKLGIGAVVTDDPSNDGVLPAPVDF
Description: Fluorescence Cell-Free Homogeneous Dose Retest to Identify Inhibitors of RecA-Intein Splicing Activity. [Related pubchem assays (depositor defined):AID2097, AID2223, AID489010, AID492950]. Format: functional.

In assay [6] the target is T6, Sentrin-specific protease 8 (Homo sapiens, UniProt Q96LD8).
T6 sequence (Q96LD8 whole entry): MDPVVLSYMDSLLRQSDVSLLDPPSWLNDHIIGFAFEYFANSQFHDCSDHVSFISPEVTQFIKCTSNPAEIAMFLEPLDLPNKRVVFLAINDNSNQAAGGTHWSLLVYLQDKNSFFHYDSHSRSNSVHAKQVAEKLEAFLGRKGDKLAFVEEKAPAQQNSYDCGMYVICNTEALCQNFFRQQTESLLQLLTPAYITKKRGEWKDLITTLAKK
Nature of the assay: SENP8 protease inhibitors, SAR follow-up, biochemical, luminescence (AID 504501). In kind it is functional.

The next assay concerns the target T7, Caspase-3 (Homo sapiens, UniProt P42574).
T7 sequence (P42574 whole entry): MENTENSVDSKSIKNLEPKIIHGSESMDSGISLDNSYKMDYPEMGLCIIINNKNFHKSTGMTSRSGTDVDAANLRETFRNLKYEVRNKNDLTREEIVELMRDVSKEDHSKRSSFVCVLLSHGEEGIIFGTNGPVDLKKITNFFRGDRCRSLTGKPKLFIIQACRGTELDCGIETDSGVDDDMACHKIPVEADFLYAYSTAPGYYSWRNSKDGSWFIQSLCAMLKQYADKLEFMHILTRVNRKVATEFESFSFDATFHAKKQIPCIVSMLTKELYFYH
Nature of the assay: SAR Analysis of small molecule inhibitors of Sentrin-specific proteases (SENPs) using a Caspase-3 Selectivity assay. [Related pubchem assays (depositor defined):AID2540, AID2599, AID434973, AID489001]. In kind it is functional.

The target in assay [7] is T8, Sentrin-specific protease 6 (Homo sapiens, UniProt Q9GZR1).
T8 sequence (Q9GZR1 whole entry): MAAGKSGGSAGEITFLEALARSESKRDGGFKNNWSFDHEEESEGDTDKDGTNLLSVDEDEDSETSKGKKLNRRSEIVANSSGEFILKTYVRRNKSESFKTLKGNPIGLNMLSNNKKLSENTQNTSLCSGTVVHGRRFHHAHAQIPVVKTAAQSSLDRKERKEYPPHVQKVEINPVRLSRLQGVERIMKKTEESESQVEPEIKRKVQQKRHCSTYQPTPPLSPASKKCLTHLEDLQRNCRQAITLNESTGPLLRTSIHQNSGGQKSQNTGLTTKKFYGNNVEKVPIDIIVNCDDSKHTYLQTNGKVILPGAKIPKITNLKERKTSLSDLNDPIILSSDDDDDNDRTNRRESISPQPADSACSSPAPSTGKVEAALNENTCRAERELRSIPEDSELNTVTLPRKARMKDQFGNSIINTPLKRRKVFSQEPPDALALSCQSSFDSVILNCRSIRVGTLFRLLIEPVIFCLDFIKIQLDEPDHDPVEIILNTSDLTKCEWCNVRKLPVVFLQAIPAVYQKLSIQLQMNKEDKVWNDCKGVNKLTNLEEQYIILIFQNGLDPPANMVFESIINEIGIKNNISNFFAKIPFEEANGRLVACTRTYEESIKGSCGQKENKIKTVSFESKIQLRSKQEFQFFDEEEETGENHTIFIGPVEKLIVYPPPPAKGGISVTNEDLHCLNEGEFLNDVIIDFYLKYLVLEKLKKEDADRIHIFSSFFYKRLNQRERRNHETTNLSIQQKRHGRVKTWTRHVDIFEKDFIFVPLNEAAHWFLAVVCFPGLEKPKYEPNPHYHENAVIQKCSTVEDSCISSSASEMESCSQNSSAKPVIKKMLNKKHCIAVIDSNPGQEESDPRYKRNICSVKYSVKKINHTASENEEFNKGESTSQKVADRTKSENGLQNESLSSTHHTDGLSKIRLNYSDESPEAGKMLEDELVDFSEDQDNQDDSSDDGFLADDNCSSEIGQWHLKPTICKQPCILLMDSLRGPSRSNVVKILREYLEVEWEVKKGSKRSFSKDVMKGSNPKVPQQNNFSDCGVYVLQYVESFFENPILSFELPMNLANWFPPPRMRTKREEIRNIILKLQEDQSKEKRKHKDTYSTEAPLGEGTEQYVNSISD
Nature of the assay: SAR Analysis of small molecule inhibitors of Sentrin-specific protease 6 (SENP6) using a Luminescent assay. [Related pubchem assays (depositor defined):AID2582, AID2599]. Format: functional.

The target of assay [8] is T9, Sentrin-specific protease 7 (Homo sapiens, UniProt Q9BQF6).
T9 sequence (Q9BQF6 whole entry): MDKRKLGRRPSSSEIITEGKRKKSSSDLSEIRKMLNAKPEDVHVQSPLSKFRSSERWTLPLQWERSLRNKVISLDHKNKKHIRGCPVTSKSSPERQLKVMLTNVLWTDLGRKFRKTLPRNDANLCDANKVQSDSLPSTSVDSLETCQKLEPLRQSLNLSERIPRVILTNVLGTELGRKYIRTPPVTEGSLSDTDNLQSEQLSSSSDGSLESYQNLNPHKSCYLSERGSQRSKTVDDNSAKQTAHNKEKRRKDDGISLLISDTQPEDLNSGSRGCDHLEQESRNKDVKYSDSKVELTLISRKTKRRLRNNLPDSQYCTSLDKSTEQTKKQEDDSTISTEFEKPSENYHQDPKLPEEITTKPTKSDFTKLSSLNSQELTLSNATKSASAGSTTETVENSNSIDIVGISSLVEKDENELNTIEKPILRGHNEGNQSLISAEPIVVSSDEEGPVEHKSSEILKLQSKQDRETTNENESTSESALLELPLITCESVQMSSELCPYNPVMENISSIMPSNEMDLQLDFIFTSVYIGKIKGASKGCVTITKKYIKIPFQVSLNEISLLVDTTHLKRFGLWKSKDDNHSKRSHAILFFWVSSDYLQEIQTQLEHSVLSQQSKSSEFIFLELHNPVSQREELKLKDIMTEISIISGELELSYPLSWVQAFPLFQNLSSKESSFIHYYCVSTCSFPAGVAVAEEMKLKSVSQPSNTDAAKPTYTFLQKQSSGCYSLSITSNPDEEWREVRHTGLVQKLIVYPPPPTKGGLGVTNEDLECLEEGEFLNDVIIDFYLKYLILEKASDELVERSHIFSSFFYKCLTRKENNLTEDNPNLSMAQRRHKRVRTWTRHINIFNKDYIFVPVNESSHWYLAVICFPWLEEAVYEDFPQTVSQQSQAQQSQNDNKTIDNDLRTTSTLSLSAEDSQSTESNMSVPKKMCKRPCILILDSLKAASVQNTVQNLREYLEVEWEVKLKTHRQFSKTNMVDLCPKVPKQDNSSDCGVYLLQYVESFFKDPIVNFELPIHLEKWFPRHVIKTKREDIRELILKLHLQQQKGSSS
Description: SENP7 protease inhibitors, SAR follow-up, biochemical, luminescence (AID 504497). Format: functional.

The source made the active and inactive calls.

Broadly, the EC50 is the concentration giving half of the maximal effect. One may read the AC50 as the concentration giving half of the maximal activity seen. One may read the IC50 as the concentration needed to halve the response being measured. Consider `CCCCCCCCOC(=O)c1c(CSC(=N)N)n(C)c2cc(Br)c(OC(C)=O)cc12`, for which the EC50 in assay [1] is 2.05 µM (active); on Streptokinase A, > 150 µM (not active); in the assay with Streptococcus, 8.01 µM (active); at Protein RecA it was 1.57 µM (active). Also, the results for the AC50 in assay [2] and in [5] were 2.7 µM (active) and 4.36 µM (active), respectively. Moreover, the IC50 on Bcl-2-related protein A1 is > 20 µM (inactive); in assay [3], 12.4 µM (active); in assay [4], 4.22 µM (active); at Cysteine protease ATG4B, 8.63 µM (active); on Phospholipase A2, 52.2 µM (inactive).
Consider `Cc1cc(NS(=O)(=O)c2ccc(F)c(F)c2)cc2sc(NC(=O)c3ccccc3)nc12`, for which the IC50 was > 99 µM (inactive) in assay [6], > 99 µM (inactive) on Caspase-3, > 99 µM (inactive) in assay [7] and 34.3 µM (active) in assay [8].

(Values after ChEMBL document CHEMBL1201862, “PubChem BioAssay data set” (2004).)
